Assay results as given in the NIST ThermoML archive (doi:10.1016/j.tca.2010.04.013).
± gives the expanded uncertainty stated by the source.

Tests used:
[1] = relative permittivity at various frequencies (dimensionless); xn = mol fraction of the nth substance listed; conditions: 303.15 K, 101.3 kPa, Liquid, Frequency=1 MHz, capacitance measurements at 1 MHz
[2] = relative permittivity at various frequencies (dimensionless); conditions: 303.15 K; 101.3 kPa; Liquid; Frequency=1 MHz; capacitance measurements at 1 MHz

CNC=O [N-methylformamide] + OCCO
relative permittivity ([1]; x2 = 0): 169.76 ± 1 | relative permittivity ([1]; x2 = 0.105): 139.93 ± 0.97 | relative permittivity ([1]; x2 = 0.209): 118.26 ± 0.8 | relative permittivity ([1]; x2 = 0.312): 102.12 ± 0.68 | relative permittivity ([1]; x2 = 0.413): 87.49 ± 0.58 | relative permittivity ([1]; x2 = 0.514): 76.46 ± 0.5 | relative permittivity ([1]; x2 = 0.613): 67.14 ± 0.44 | relative permittivity ([1]; x2 = 0.711): 59.59 ± 0.39 | relative permittivity ([1]; x2 = 0.809): 52.6 ± 0.34 | relative permittivity ([1]; x2 = 0.905): 46.26 ± 0.31

CN(C)C=O [dimethylformamide] + OCCO
relative permittivity ([1]; x2 = 0): 36.55 ± 0.22

CNC=O [N-methylformamide] + CCO
relative permittivity ([1]; x2 = 0): 169.76 ± 1 | relative permittivity ([1]; x2 = 0.101): 144.63 ± 0.98 | relative permittivity ([1]; x2 = 0.202): 123.72 ± 0.84 | relative permittivity ([1]; x2 = 0.302): 104.17 ± 0.73 | relative permittivity ([1]; x2 = 0.402): 85.99 ± 0.61 | relative permittivity ([1]; x2 = 0.502): 71.06 ± 0.51 | relative permittivity ([1]; x2 = 0.602): 57.8 ± 0.42 | relative permittivity ([1]; x2 = 0.702): 46.91 ± 0.35 | relative permittivity ([1]; x2 = 0.802): 37.6 ± 0.29 | relative permittivity ([1]; x2 = 0.901): 29.54 ± 0.23

CNC=O [N-methylformamide]
relative permittivity [2]: 169.76 ± 1

CN(C)C=O [dimethylformamide] + CCO
relative permittivity ([1]; x2 = 0): 36.55 ± 0.22 | relative permittivity ([1]; x2 = 0.087): 35.57 ± 0.21 | relative permittivity ([1]; x2 = 0.169): 34.72 ± 0.21 | relative permittivity ([1]; x2 = 0.249): 33.96 ± 0.21 | relative permittivity ([1]; x2 = 0.325): 32.98 ± 0.2 | relative permittivity ([1]; x2 = 0.399): 32.16 ± 0.19 | relative permittivity ([1]; x2 = 0.469): 31.39 ± 0.19 | relative permittivity ([1]; x2 = 0.537): 30.57 ± 0.19 | relative permittivity ([1]; x2 = 0.603): 29.63 ± 0.18 | relative permittivity ([1]; x2 = 0.666): 28.78 ± 0.18 | relative permittivity ([1]; x2 = 0.726): 27.8 ± 0.17 | relative permittivity ([1]; x2 = 0.785): 27.05 ± 0.16 | relative permittivity ([1]; x2 = 0.841): 26.22 ± 0.16 | relative permittivity ([1]; x2 = 0.896): 25.39 ± 0.16 | relative permittivity ([1]; x2 = 0.949): 24.65 ± 0.15

NC=O [formamide] + OCCO
relative permittivity ([1]; x2 = 0): 106.14 ± 0.64 | relative permittivity ([1]; x2 = 0.048): 103.75 ± 0.63 | relative permittivity ([1]; x2 = 0.099): 100.44 ± 0.62 | relative permittivity ([1]; x2 = 0.151): 96.49 ± 0.6 | relative permittivity ([1]; x2 = 0.206): 92.28 ± 0.57 | relative permittivity ([1]; x2 = 0.263): 88.7 ± 0.55 | relative permittivity ([1]; x2 = 0.322): 84.61 ± 0.53 | relative permittivity ([1]; x2 = 0.384): 80.3 ± 0.5 | relative permittivity ([1]; x2 = 0.449): 75.79 ± 0.48 | relative permittivity ([1]; x2 = 0.517): 70.99 ± 0.45 | relative permittivity ([1]; x2 = 0.588): 66.04 ± 0.42 | relative permittivity ([1]; x2 = 0.662): 61.55 ± 0.39 | relative permittivity ([1]; x2 = 0.74): 56.35 ± 0.36 | relative permittivity ([1]; x2 = 0.823): 51.05 ± 0.33 | relative permittivity ([1]; x2 = 0.909): 46.12 ± 0.3

NC=O [formamide]
relative permittivity [2]: 106.14 ± 0.64

NC=O [formamide] + CCO
relative permittivity ([1]; x2 = 0): 106.14 ± 0.64 | relative permittivity ([1]; x2 = 0.046): 100.82 ± 0.65 | relative permittivity ([1]; x2 = 0.095): 95.19 ± 0.62 | relative permittivity ([1]; x2 = 0.146): 89.27 ± 0.59 | relative permittivity ([1]; x2 = 0.199): 82.58 ± 0.55 | relative permittivity ([1]; x2 = 0.254): 76.43 ± 0.51 | relative permittivity ([1]; x2 = 0.312): 70.03 ± 0.47 | relative permittivity ([1]; x2 = 0.374): 64.23 ± 0.43 | relative permittivity ([1]; x2 = 0.438): 57.92 ± 0.39 | relative permittivity ([1]; x2 = 0.506): 51.93 ± 0.35 | relative permittivity ([1]; x2 = 0.577): 46.28 ± 0.31 | relative permittivity ([1]; x2 = 0.652): 41.17 ± 0.28 | relative permittivity ([1]; x2 = 0.732): 36.15 ± 0.25 | relative permittivity ([1]; x2 = 0.816): 31.37 ± 0.21 | relative permittivity ([1]; x2 = 0.905): 27.6 ± 0.18

CN(C)C=O [dimethylformamide]
relative permittivity [2]: 36.55 ± 0.22
